Experimental data from PMC8617681 (Pharmaceuticals, 2021).
Entries after “also recorded” stand apart in the source; their conditions may differ.

Key:
[1] = target: T1, human OATP1B3 (Homo sapiens, UniProt Q9NPD5); assay: Cellular uptake in OATP1B3-overexpressing HEK293 cells; type: in vitro ADME; settings: 5 µM, 2.5 min incubation, HEK293 OATP1B3
T1 construct: Werner Siegmund and Dr. Markus Keiser (University of Greifswald); host or cells: HEK293
T1 sequence (Q9NPD5 1-702): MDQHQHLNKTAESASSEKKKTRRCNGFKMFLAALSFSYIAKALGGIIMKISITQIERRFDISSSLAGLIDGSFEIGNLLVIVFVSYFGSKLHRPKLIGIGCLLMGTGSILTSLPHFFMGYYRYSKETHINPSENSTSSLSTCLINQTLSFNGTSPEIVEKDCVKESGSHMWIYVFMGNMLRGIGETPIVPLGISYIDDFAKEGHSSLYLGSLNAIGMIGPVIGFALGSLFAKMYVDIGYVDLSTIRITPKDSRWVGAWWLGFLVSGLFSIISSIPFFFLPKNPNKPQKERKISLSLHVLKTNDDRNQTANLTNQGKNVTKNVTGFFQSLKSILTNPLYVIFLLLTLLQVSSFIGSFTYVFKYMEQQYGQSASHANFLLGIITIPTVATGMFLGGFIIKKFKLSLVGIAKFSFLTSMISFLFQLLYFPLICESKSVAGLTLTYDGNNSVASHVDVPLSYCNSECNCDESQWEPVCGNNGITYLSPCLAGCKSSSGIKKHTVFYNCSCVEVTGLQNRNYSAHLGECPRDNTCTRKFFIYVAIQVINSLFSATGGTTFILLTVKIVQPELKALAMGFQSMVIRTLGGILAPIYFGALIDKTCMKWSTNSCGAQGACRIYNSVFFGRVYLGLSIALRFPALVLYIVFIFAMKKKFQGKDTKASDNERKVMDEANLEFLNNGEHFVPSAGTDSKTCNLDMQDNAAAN
Procedure: HEK293 cells, vector-transfected or human (h)SLCO1A2, hSLCO1B1 or hSLCO1B3 cDNA-transfected were kind gifts from Prof. Werner Siegmund and Dr. Markus Keiser (University of Greifswald, Greifswald, Germany). All the HEK293 cell lines were maintained in DMEM supplemented with 10% (v/v) FBS, 1% penicillin–streptomycin mix at 37 °C in 5% (v/v) CO2 and 500 μg/mL G418. Cells were first seeded in 12-well plates [coated with 50 mg/L poly (l-lysine) and 50 mg/L poly (l-ornithine)] at a density of 1.0 × 10^5 cells/well. For the uptake study, in order to induce the expression of OATP transporters, the cell culture medium was replaced with culture medium supplemented with 5 mM sodium butyrate 24 h before performing the uptake assay.
The uptake transport study was performed as described previously. […] The Krebs–Henseleit solution was prepared from Krebs–Henseleit-buffer modified powder and supplemented with 25 mM NaHCO3 and 2.5 mM CaCl2 adjusted to pH 6.4 with 1 M HCL. At 2.5 min, the incubation buffer was removed, and uptake was terminated by adding 1 mL of ice-cold Krebs–Henseleit buffer, followed by two times washing with 1 mL of ice-cold Krebs–Henseleit buffer. […] The cellular protein amount was determined by the Bradford method using 10 μL of the cell lysates with bovine serum albumin as a standard.

[2] = 4 h pharmacokinetic pilot study in wild-type, Abcb1a/1b;Abcg2-/- and Slco1a/1b-/- mice; type: in vivo; settings: for abnormal external behavior (acute toxicity): 10 mg/kg oral
Procedure: Mice were housed and handled according to institutional guidelines complying with Dutch and EU legislation. All experimental animal protocols were evaluated and approved by the institutional animal care and use committee. Wild-type, Abcb1a/1b^-/-, Abcg2^-/-, Abcb1a/1b; Abcg2^-/-, Slco1a/1b^-/- male mice, and Cyp3a^-/- and Cyp3aXAV female mice, all of a >99% FVB genetic background, were used between 9 and 16 weeks of age. […] All experimental animal protocols (WP9450, 9669, 9760), including power calculations, designed under the nationally approved DEC/CCD project AVD301002016595, were evaluated and approved by the institutional animal care and use committee of The Netherlands Cancer Institute. […]
For the 4 h transporter experiments, tail-vein blood samples were collected at 0.125, 0.25, 0.5, 1, and 2 h time points after oral administration, respectively. For the CYP3A 8 h experiments, tail-vein blood sampling was performed at 0.25, 0.5, 1, 2, and 4 h, respectively. While for elacridar inhibition experiments, tail-vein blood samples were collected at 0.125, 0.25, 0.5, and 1 h time points after oral administration, respectively. Blood sample collection was performed using microvettes containing dipotassium EDTA. At the last time point in each experiment (2, 4 or 8 h), mice were anesthetized with 5% isoflurane and blood was collected by cardiac puncture. Blood samples were collected in Eppendorf tubes containing heparin as an anticoagulant. The mice were then sacrificed by cervical dislocation and brain, liver, kidney, lung, small intestine and testis were rapidly removed. Plasma was isolated from the blood by centrifugation at 9000× g for 6 min at 4 °C, and the plasma fraction was collected and stored at −30 °C until analysis. Organs were homogenized with 4% (w/v) bovine serum albumin and stored at −30 °C until analysis.
Pharmacokinetic parameters were calculated by noncompartmental methods using the PK solver software. The area under the plasma concentration–time curve (AUC) was calculated using the trapezoidal rule, without extrapolating to infinity. The peak plasma concentration (Cmax) and the time of maximum plasma concentration (Tmax) were estimated from the original (individual mouse) data. One-way analysis of variance (ANOVA) was used when multiple groups were compared and the Tukey post hoc correction was used to accommodate multiple testing. The two-sided unpaired Student’s t-test was used when treatments or differences between two specific groups were compared using the software GraphPad Prism 8 (GraphPad Software Inc., La Jolla, CA, USA). All the data were log-transformed before statistical tests were applied. Differences were considered statistically significant when p < 0.05. All data are presented as geometric mean ± SD.

[3] = tested on: RET fusion-positive cancers; settings: clinical phase 1 study; cited from earlier work
[4] = male, FVB (Abcb1a/1b;Abcg2-/-), mouse, in vivo, po, 10 mg/kg, 4 h
[5] = male, FVB (Slco1a/1b-/-), mouse, in vivo, po, 10 mg/kg, 4 h
[6] = male, FVB background, Abcb1a/1b;Abcg2-/-, mouse, in vivo, po, 10 mg/kg
[7] = male, FVB background, Slco1a/1b-/-, mouse, in vivo, po, 10 mg/kg
[8] = male, FVB background, wild-type, mouse, in vivo, po, 10 mg/kg

## COc1ccc(CN2C3CC2CN(c2ccc(-c4cc(OCC(C)(C)O)cn5ncc(C#N)c45)cn2)C3)cn1 [selpercatinib]
[1]
  uptake compared to vector control cells: did not observe any significant increase in the uptake
[2]; Abcb1a/1b;Abcg2-/- mice
  abnormal external behavior (acute toxicity): did not observe any abnormal external behavior
[2]; Slco1a/1b-/- mice, 10 mg/kg
  abnormal external behavior (acute toxicity): did not show any abnormal external behavior; also recorded: did not observe any abnormal external behavior
[2]; [4]
  CSIC (small intestine contents concentration): 34,929 ± 16,659 ng/g
  Cliver: 19,077 ± 2696 ng/g
[2]; male, FVB (Abcb1a/1b;Abcg2-/-), mouse, in vivo, po, 10 mg/kg, CSIC (small intestine contents concentration)
  concentration at 4 h: 34900 ng/g
[2]; male, FVB (Abcb1a/1b;Abcg2-/-), mouse, in vivo, po, 10 mg/kg, Cbrain
  concentration at 4 h: 3450 ng/g
[2]; male, FVB (Abcb1a/1b;Abcg2-/-), mouse, in vivo, po, 10 mg/kg, Cliver
  concentration at 4 h: 19100 ng/g
[2]; male, FVB (Abcb1a/1b;Abcg2-/-), mouse, in vivo, po, 10 mg/kg, Ctestis
  concentration at 4 h: 5730 ng/g
[2]; [5]
  Cbrain: 278 ± 42 ng/g
  Cliver: 19,916 ± 3174 ng/g
[2]; male, FVB (Slco1a/1b-/-), mouse, in vivo, po, 10 mg/kg, Cbrain
  concentration at 4 h: 278 ± 42 ng/g
[2]; male, FVB (Slco1a/1b-/-), mouse, in vivo, po, 10 mg/kg, Cliver
  concentration at 4 h: 19900 ng/g
[2]; male, FVB (Slco1a/1b-/-), mouse, in vivo, po, 10 mg/kg, Ctestis
  concentration at 4 h: 1120 ng/g
[2]; male, FVB (wild-type), mouse, in vivo, po, 10 mg/kg, 4 h
  Cliver: 17,593 ± 3471 ng/g
[2]; male, FVB (wild-type), mouse, in vivo, po, 10 mg/kg, Cliver
  concentration at 4 h: 17600 ng/g
[2]; [6]
  AUC(0-t): 30200 ng·h/mL
  Cmax: 8580 ± 2160 ng/mL
  Tmax: 1.6 ± 1.2 h
[2]; [7]
  AUC(0-t): 36200 ng·h/mL
  Cmax: 11600 ng/mL
  Tmax: 1.7 ± 0.52 h
[2]; male, FVB background, Slco1a/1b-/-, mouse, in vivo, po, 10 mg/kg, CSIC (small intestine contents concentration)
  concentration at 4 h: 141000 ng/g
[2]; [8]
  AUC(0-t): 26600 ng·h/mL
  Cmax: 7860 ± 1810 ng/mL
  Tmax: 1.8 ± 1.2 h
[2]; male, FVB background, wild-type, mouse, in vivo, po, 10 mg/kg, CSIC (small intestine contents concentration)
  concentration at 4 h: 91100 ng/g
[2]; male, FVB background, wild-type, mouse, in vivo, po, 10 mg/kg, Cbrain
  concentration at 4 h: 186 ± 23 ng/g
[2]; male, FVB background, wild-type, mouse, in vivo, po, 10 mg/kg, Ctestis
  concentration at 4 h: 730 ± 103 ng/g
[3]
  overall response rate: 77%
